Assay results published in patent publication US20080076788A1, “SOLID FORMS OF (3'-CHLOROBIPHENYL-4-YL)(1-(PYRIMIDIN-2-YL)PIPERIDIN-4-YL)METHANONE AND METHODS OF THEIR USE” (priority 2006, published 2008).

What was measured:
[1] = biological target: T1, Na^+-dependent proline transporter (Homo sapiens, UniProt Q99884); conditions: statement in words, refers to U.S. patent application Ser. Nos. 11/433,057 and 11/433,626; cited from earlier work
T1 sequence (Q99884 1-636): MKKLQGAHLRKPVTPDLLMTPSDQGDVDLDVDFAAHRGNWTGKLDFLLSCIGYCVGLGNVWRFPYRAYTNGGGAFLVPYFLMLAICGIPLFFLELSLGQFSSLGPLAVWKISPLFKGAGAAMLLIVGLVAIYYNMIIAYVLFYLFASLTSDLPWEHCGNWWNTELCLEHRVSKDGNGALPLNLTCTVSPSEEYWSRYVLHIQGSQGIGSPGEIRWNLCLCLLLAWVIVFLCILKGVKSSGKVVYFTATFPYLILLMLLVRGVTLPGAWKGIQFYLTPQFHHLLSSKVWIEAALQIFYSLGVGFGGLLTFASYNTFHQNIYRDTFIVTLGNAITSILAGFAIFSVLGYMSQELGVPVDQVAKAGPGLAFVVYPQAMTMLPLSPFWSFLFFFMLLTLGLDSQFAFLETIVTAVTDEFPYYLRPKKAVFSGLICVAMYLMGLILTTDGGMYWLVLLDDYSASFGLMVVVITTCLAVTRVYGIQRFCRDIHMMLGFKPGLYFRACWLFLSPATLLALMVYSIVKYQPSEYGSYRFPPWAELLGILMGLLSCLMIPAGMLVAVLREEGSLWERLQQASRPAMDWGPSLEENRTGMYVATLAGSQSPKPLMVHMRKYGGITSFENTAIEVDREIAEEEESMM

mice = test: Learning and memory in mice after administration of the compound; assay type: in vivo; conditions: administered to mice

Question: For O=C(c1ccc(-c2cccc(Cl)c2)cc1)C1CCN(c2ncccn2)CC1 [(3′-chlorobiphenyl-4-yl)(1-(pyrimidin-2-yl)piperidin-4-yl)methanone], which “inhibition of the Na+-dependent proline transporter” value [1] is on record?
Answer: inhibitor

Question: What about the “effect on learning and memory” value (mice) of the same molecule?
Answer: increase learning and memory

Question: What about the melting point of the same molecule?
Answer: ~ 117 °C
